# Measurements published in US8614085B2, “Yeast with increased butanol tolerance involving a multidrug efflux pump gene” (Butamax(TM) Advanced Biofuels LLC, priority 2009, dated 2013).
# Like-named read-outs stand apart in the source and are kept apart here.
# How the values were obtained:
# [1] = tested on: diploid parental strain BY4743; conditions: YPD, 30° C., inoculum OD600 0.01, average +/- SD
# Experimental: The inoculum OD600 was 0.01. The OD600 of each culture was measured after 24 hours incubation on a roller drum at 30° C. Triplicate cultures of each strain were tested. The average and standard deviation of the 24 hour growth yield measurements in each isobutanol concentration are given in Table 5.
# The inoculum OD600 was 0.01. The OD600 of each culture was measured after 23 hours incubation on a roller drum at 30° C. Triplicate cultures of each strain were tested.
# [2] = tested on: homozygous diploid strain containing a PDR5 deletion mutation (strain #32409, S04); test: Growth yield (OD600) of homozygous diploid PDR5 deletion strain in YPD medium with butanol; format: cell-based, Saccharomyces cerevisiae; conditions: for OD600 after 23 hours incubation with 1-butanol / OD600 after 24 hours incubation with isobutanol: diploid PDR5 mutant, YPD, 30° C., inoculum OD600 0.01, average +/- SD; for growth yield of strain with the PDR5 deletion compared to BY4743: diploid
# [3] = tested on: haploid strain containing a PDR5 deletion mutation (strain #2409); test: Growth yield (OD600) of haploid PDR5 deletion strain in YPD medium with isobutanol; format: cell-based, Saccharomyces cerevisiae; conditions: for OD600 after 24 hours incubation with isobutanol: haploid PDR5 mutant, YPD, 30° C., inoculum OD600 0.01, average +/- SD; for growth yield of strain with the PDR5 deletion compared to BY4741: haploid, 24 hours
# Experimental: (§1) A haploid strain of Saccharomyces cerevisiae containing a PDR5 deletion mutation (strain #2409) was obtained from Open Biosystems (Huntsville, Ala.) The deletion strain was made as part of the Saccharomyces Genome Deletion Project described in Winzeler al. (Science, 285:901-906, (1999)). […] The inoculum OD600 was 0.01. […] Duplicate cultures of each strain were tested.
# [4] = tested on: parental strain BY4741; test: Growth yield (OD600) of haploid parental strain in YPD medium with isobutanol; format: cell-based, Saccharomyces cerevisiae; conditions: 30° C., inoculum OD600 0.01, average +/- SD
# Experimental: as §1
smiles,measurement,setting,value
"CCCCO [1-Butanol, 1-butanol]",OD600 after 23 hours incubation with 1-butanol,[1]; 0.625 % w/v 1-butanol,2.38 +/− 0.25
same,OD600 after 23 hours incubation with 1-butanol,[1]; 0.75 % w/v 1-butanol,0.30 +/− 0.03
same,OD600 after 23 hours incubation with 1-butanol,[1]; 0.875 % w/v 1-butanol,0.22 +/− 0.01
same,OD600 after 23 hours incubation with 1-butanol,[2]; 0.625 % w/v 1-butanol,3.27 +/− 0.23
same,OD600 after 23 hours incubation with 1-butanol,[2]; 0.75 % w/v 1-butanol,0.40 +/− 0.02
same,OD600 after 23 hours incubation with 1-butanol,[2]; 0.875 % w/v 1-butanol,0.27 +/− 0.01
same,growth yield of strain with the PDR5 deletion compared to BY4743,"[2]; 0.625% w/v 1-butanol, 23 hours",1.4 fold
same,growth yield of strain with the PDR5 deletion compared to BY4743,"[2]; 0.75% w/v 1-butanol, 23 hours",1.3 fold
same,growth yield of strain with the PDR5 deletion compared to BY4743,"[2]; 0.875% w/v 1-butanol, 23 hours",1.2 fold
"CC(C)CO [Isobutanol, isobutanol]",OD600 after 24 hours incubation with isobutanol,[3]; 0.75 % w/v isobutanol,4.71 +/− 0.53
same,OD600 after 24 hours incubation with isobutanol,[3]; 0.875 % w/v isobutanol,2.45 +/− 0.42
same,OD600 after 24 hours incubation with isobutanol,[3]; 1 % w/v isobutanol,0.76 +/− 0.13
same,growth yield of strain with the PDR5 deletion compared to BY4741,[3]; 0.75% w/v isobutanol,1.8 fold
same,growth yield of strain with the PDR5 deletion compared to BY4741,[3]; 0.825% w/v isobutanol,3.5 fold
same,growth yield of strain with the PDR5 deletion compared to BY4741,[3]; 1% w/v isobutanol,8 fold
same,OD600 after 24 hours incubation with isobutanol,[4]; 0.75 % w/v isobutanol,2.68 +/− 0.07
same,OD600 after 24 hours incubation with isobutanol,[4]; 0.875 % w/v isobutanol,0.692 +/− 0.04
same,OD600 after 24 hours incubation with isobutanol,[4]; 1 % w/v isobutanol,0.09 +/− 0.02
same,OD600 after 24 hours incubation with isobutanol,[1]; 0.25 % w/v isobutanol,7.36 +/− 0.04
same,OD600 after 24 hours incubation with isobutanol,[1]; 0.5 % w/v isobutanol,6.62 +/− 0.24
same,OD600 after 24 hours incubation with isobutanol,[1]; 0.75 % w/v isobutanol,1.84 +/− 0.36
same,OD600 after 24 hours incubation with isobutanol,[1]; 0.825 % w/v isobutanol,0.19 +/− 0.03
same,OD600 after 24 hours incubation with isobutanol,[1]; 1 % w/v isobutanol,0.08 +/− 0.01
same,OD600 after 24 hours incubation with isobutanol,[2]; 0.25 % w/v isobutanol,7.51 +/− 0.11
same,OD600 after 24 hours incubation with isobutanol,[2]; 0.5 % w/v isobutanol,7.17 +/− 0.12
same,OD600 after 24 hours incubation with isobutanol,[2]; 0.75 % w/v isobutanol,4.91 +/− 0.29
same,OD600 after 24 hours incubation with isobutanol,[2]; 0.825 % w/v isobutanol,1.67 +/− 0.13
same,OD600 after 24 hours incubation with isobutanol,[2]; 1 % w/v isobutanol,0.16 +/− 0.01
same,growth yield of strain with the PDR5 deletion compared to BY4743,"[2]; 0.75% w/v isobutanol, 24 hours",2.7 fold
same,growth yield of strain with the PDR5 deletion compared to BY4743,"[2]; 0.825% w/v isobutanol, 24 hours",8.8 fold
